Experimental data from patent publication US20250176599A1, “FLAVOR COMPOSITION AND FOOD AND BEVERAGE” (TAKASAGO INTERNATIONAL CORPORATION, priority 2021, published 2025).

How the values were obtained:
[1] = Sensory evaluation of aqueous solution I containing (E)-2-nonenal 1 ppb: off-flavor intensity and masking component intensity; settings: average panel score
Summary of the method: (§1)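 Scores run 0–4 for two attributes: off-flavor intensity, judged against the unmasked spiked solution (4) and degradant-free water (0), and nootkatone's own perceptibility, judged absolutely. A panel of eight experienced tasters evaluated aqueous solutions of the degradation component containing added nootkatone.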

[2] = Sensory evaluation of aqueous solution II containing (E)-2-octenal 10 ppb: off-flavor intensity and masking component intensity; settings: average panel score
Summary of the method: as §1

[3] = Sensory evaluation of aqueous solution III containing 1-octen-3-one 1 ppb: off-flavor intensity and masking component intensity; settings: average panel score
Summary of the method: as §1

[4] = Sensory evaluation of aqueous solution IV containing 1,5-octadien-3-one 100 ppt: off-flavor intensity and masking component intensity; settings: aqueous solution IV, average panel score
Summary of the method: as §1

[5] = Sensory evaluation of aqueous solution V containing 1-octen-3-ol 10 ppb: off-flavor intensity and masking component intensity; settings: average panel score
Summary of the method: as §1

[6] = Sensory evaluation of aqueous solution VI containing 1,5-octadien-3-ol 10 ppb: off-flavor intensity and masking component intensity; settings: aqueous solution VI, average panel score
Summary of the method: as §1

[7] = Overall conclusion of the sensory evaluation across aqueous solutions I to VI
Summary of the method: as §1

## C=CC(C)(O)CCC=C(C)CCC=C(C)C (centres unmarked) [nerolidol]
[1]; 1 ppb added
  Masking Component Intensity: 0.4
  Off-Flavor Intensity: 2.8
[1]; 1 ppm added
  Masking Component Intensity: 2.0
  Off-Flavor Intensity: 1.6
[1]; 5 ppm added
  Masking Component Intensity: 2.9
  Off-Flavor Intensity: 1.0
[1]; 10 ppb added
  Masking Component Intensity: 0.6
  Off-Flavor Intensity: 2.4
[1]; 10 ppm added
  Masking Component Intensity: 3.8
  Off-Flavor Intensity: 0.8
[1]; 10 ppt added
  Masking Component Intensity: 0.1
  Off-Flavor Intensity: 3.6
[1]; 100 ppb added
  Masking Component Intensity: 1.1
  Off-Flavor Intensity: 2.0
[1]; 100 ppt added
  Masking Component Intensity: 0.3
  Off-Flavor Intensity: 3.3
[2]; 1 ppb added
  Masking Component Intensity: 0.4
  Off-Flavor Intensity: 2.6
[2]; 1 ppm added
  Masking Component Intensity: 2.4
  Off-Flavor Intensity: 1.5
[2]; 5 ppm added
  Masking Component Intensity: 3.4
  Off-Flavor Intensity: 0.8
[2]; 10 ppb added
  Masking Component Intensity: 0.8
  Off-Flavor Intensity: 2.3
[2]; 10 ppm added
  Masking Component Intensity: 3.8
  Off-Flavor Intensity: 0.5
[2]; 10 ppt added
  Masking Component Intensity: 0.0
  Off-Flavor Intensity: 3.4
[2]; 100 ppb added
  Masking Component Intensity: 1.5
  Off-Flavor Intensity: 1.9
[2]; 100 ppt added
  Masking Component Intensity: 0.1
  Off-Flavor Intensity: 3.0
[3]; 1 ppb added
  Masking Component Intensity: 0.4
  Off-Flavor Intensity: 3.0
[3]; 1 ppm added
  Masking Component Intensity: 2.1
  Off-Flavor Intensity: 1.5
[3]; 5 ppm added
  Masking Component Intensity: 3.4
  Off-Flavor Intensity: 0.9
[3]; 10 ppb added
  Masking Component Intensity: 0.8
  Off-Flavor Intensity: 2.5
[3]; 10 ppm added
  Masking Component Intensity: 3.6
  Off-Flavor Intensity: 0.4
[3]; 10 ppt added
  Masking Component Intensity: 0.1
  Off-Flavor Intensity: 3.6
[3]; 100 ppb added
  Masking Component Intensity: 1.5
  Off-Flavor Intensity: 2.0
[3]; 100 ppt added
  Masking Component Intensity: 0.3
  Off-Flavor Intensity: 3.4
[4]; 1 ppb added
  Masking Component Intensity: 0.4
  Off-Flavor Intensity: 3.1
[4]; 1 ppm added
  Masking Component Intensity: 2.0
  Off-Flavor Intensity: 2.3
[4]; 5 ppm added
  Masking Component Intensity: 3.0
  Off-Flavor Intensity: 1.9
[4]; 10 ppb added
  Masking Component Intensity: 0.6
  Off-Flavor Intensity: 3.0
[4]; 10 ppm added
  Masking Component Intensity: 3.6
  Off-Flavor Intensity: 1.4
[4]; 10 ppt added
  Masking Component Intensity: 0.1
  Off-Flavor Intensity: 3.6
[4]; 100 ppb added
  Masking Component Intensity: 1.3
  Off-Flavor Intensity: 2.6
[4]; 100 ppt added
  Masking Component Intensity: 0.1
  Off-Flavor Intensity: 3.4
[5]; 1 ppb added
  Masking Component Intensity: 0.6
  Off-Flavor Intensity: 2.6
[5]; 1 ppm added
  Masking Component Intensity: 2.6
  Off-Flavor Intensity: 1.6
[5]; 5 ppm added
  Masking Component Intensity: 3.5
  Off-Flavor Intensity: 1.0
[5]; 10 ppb added
  Masking Component Intensity: 0.9
  Off-Flavor Intensity: 2.5
[5]; 10 ppm added
  Masking Component Intensity: 3.9
  Off-Flavor Intensity: 0.6
[5]; 10 ppt added
  Masking Component Intensity: 0.1
  Off-Flavor Intensity: 3.6
[5]; 100 ppb added
  Masking Component Intensity: 1.4
  Off-Flavor Intensity: 2.1
[5]; 100 ppt added
  Masking Component Intensity: 0.3
  Off-Flavor Intensity: 3.1
[6]; 1 ppb added
  Masking Component Intensity: 0.3
  Off-Flavor Intensity: 3.1
[6]; 1 ppm added
  Masking Component Intensity: 2.5
  Off-Flavor Intensity: 1.8
[6]; 5 ppm added
  Masking Component Intensity: 3.5
  Off-Flavor Intensity: 1.1
[6]; 10 ppb added
  Masking Component Intensity: 0.8
  Off-Flavor Intensity: 2.4
[6]; 10 ppm added
  Masking Component Intensity: 3.9
  Off-Flavor Intensity: 0.8
[6]; 10 ppt added
  Masking Component Intensity: 0.0
  Off-Flavor Intensity: 3.5
[6]; 100 ppb added
  Masking Component Intensity: 1.3
  Off-Flavor Intensity: 2.1
[6]; 100 ppt added
  Masking Component Intensity: 0.1
  Off-Flavor Intensity: 3.3
[7]
  concentration that masks the off-flavor and does not affect the flavor of the food and/or beverage itself, lower limit: ≥ 100 ppt
  concentration that masks the off-flavor and does not affect the flavor of the food and/or beverage itself, upper limit: ≤ 5 ppm
